Source: publication PMC3257218 (Journal of Medicinal Chemistry, 2011)
Changes are numbered by the printed parent chain. Blank lines part the entries; values can stand above or below the molecule they belong to.

Key:
[1] = target: T1, human OCT2 (Homo sapiens, UniProt O15244, S270A); assay: ASP+ uptake inhibition in HEK293 cells stably expressing OCT2; details: for inhibition of OCT2 mediated transport: ASP+ 5 µM; for inhibition of renal OCT2 and MATE1 compared to hepatic OCT1: concentration-dependent inhibition, Figure 4C
T1 sequence (O15244 1-555 S270A): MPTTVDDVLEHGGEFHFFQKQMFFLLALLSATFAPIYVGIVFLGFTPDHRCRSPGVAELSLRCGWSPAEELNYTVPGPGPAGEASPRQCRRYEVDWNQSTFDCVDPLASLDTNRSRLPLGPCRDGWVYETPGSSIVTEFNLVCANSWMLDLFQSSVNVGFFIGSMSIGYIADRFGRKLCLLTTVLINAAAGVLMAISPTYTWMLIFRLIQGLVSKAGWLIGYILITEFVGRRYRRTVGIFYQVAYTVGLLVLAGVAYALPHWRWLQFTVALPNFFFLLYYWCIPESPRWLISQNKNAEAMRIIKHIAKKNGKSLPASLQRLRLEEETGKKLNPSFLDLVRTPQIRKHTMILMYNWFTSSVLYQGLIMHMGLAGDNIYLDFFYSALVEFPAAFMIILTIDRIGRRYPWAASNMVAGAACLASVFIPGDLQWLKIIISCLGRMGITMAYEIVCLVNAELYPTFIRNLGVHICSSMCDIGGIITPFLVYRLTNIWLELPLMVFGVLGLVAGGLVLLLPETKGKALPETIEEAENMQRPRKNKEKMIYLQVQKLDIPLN

[2] = target: T2, OCT2-A270S (Homo sapiens, UniProt O15244); assay: ASP+ uptake inhibition in HEK293 cells stably expressing OCT2-A270S; type: cell-based; details: for affinity towards OCT2-A270S compared to reference protein: concentration-dependent inhibition, Figure 4C
T2 sequence (O15244 1-555): T1 sequence (O15244 1-555 S270A) with A270S

[3] = target: T3, MATE1 (Homo sapiens, UniProt Q96FL8); assay: ASP+ uptake inhibition in HEK293 cells stably expressing MATE1; type: cell-based; details: for inhibition potency for MATE1 versus other transporters of the panel: concentration-dependent inhibition, Figure 4C
T3 sequence (Q96FL8 1-570): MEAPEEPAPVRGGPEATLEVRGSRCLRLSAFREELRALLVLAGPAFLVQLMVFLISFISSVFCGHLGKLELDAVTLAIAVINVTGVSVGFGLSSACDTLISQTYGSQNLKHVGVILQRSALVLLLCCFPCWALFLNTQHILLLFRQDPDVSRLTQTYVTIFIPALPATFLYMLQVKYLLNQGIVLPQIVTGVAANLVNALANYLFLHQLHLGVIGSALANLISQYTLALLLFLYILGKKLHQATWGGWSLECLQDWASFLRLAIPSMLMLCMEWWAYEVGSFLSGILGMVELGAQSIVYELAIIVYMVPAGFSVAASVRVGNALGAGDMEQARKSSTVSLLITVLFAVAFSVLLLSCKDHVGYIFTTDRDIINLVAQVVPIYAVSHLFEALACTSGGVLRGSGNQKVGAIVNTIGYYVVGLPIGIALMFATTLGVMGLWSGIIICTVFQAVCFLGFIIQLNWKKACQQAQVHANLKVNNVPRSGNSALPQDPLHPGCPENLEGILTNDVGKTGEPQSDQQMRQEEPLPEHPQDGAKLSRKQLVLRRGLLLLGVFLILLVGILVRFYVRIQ

[4] = collected from the literature; cited from earlier work
[5] = target: MATE2-K (Homo sapiens, UniProt Q86VL8); assay: ASP+ uptake inhibition in HEK293 cells stably expressing MATE2-K; type: cell-based
[6] = target: T4, human OCT1 (Homo sapiens, UniProt O15245); details: screen at 20 µM
T4 sequence (O15245 1-554): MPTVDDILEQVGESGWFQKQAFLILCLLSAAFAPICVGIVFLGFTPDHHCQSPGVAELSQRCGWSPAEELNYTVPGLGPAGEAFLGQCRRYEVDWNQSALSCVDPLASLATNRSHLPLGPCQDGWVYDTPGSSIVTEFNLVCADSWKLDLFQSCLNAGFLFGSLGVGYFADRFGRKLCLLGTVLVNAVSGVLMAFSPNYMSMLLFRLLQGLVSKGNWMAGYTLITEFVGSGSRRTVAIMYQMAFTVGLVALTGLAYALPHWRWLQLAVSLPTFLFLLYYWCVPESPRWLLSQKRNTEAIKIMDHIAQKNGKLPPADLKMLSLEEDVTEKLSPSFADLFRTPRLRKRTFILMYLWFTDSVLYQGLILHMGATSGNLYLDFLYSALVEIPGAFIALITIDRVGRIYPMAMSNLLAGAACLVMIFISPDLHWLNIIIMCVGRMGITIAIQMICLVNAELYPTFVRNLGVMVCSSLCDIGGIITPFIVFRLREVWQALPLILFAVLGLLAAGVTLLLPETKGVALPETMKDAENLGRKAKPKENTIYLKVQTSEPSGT

MATE2-K, sequence (Q86VL8 1-566 isoform Q86VL8-3): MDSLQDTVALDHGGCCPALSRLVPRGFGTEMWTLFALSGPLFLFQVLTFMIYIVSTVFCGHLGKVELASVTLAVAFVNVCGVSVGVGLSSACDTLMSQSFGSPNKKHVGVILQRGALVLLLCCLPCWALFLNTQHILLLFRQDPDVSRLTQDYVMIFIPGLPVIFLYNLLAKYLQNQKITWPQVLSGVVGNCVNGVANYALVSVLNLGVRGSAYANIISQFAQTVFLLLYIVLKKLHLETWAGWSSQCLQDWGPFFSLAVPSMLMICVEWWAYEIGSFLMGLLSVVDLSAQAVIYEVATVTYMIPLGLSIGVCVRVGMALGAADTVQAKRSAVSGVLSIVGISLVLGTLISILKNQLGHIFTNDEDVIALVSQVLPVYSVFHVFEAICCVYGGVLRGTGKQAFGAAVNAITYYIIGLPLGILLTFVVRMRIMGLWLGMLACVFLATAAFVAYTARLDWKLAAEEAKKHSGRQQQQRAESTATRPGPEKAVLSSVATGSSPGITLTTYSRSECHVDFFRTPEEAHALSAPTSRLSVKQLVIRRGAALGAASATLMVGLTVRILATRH

SMILES: CN(C)c1ccc(C=Cc2cc[n+](C)cc2)cc1 [ASP^+, 4-(4-(dimethylamino)styryl)-N-methylpyridinium]
Km ([1]; read-out: Km of ASP+ transport, OCT2 specific uptake, HEK293 cells): 36.4 ± 6.8 µM

inhibition of OCT2 mediated transport ([1]; inhibitor 20 µM): partial
SMILES: CN/C(=N\CCSCc1nc[nH]c1C)NC#N [Cimetidine]
inhibition of transporter activity ([2]; inhibitor 500 µM): complete inhibition of transporter activity
inhibition potency for MATE1 versus other transporters of the panel [3]: considerably higher inhibition potency for MATE1 than for the other transporters in the panel
inhibition of transporter activity ([3]; inhibitor 500 µM): complete inhibition of transporter activity
inhibition of OCT2 mediated transport ([1]; inhibitor 500 µM): complete inhibition of transporter activity

SMILES: CC(C)N(CCC(C(N)=O)(c1ccccc1)c1ccccn1)C(C)C (stereo not drawn) [Disopyramide]
PB, plasma protein binding [4]: 50%

SMILES: CN(C)CCCN1c2ccccc2CCc2ccccc21 [Imipramine]
affinity towards OCT2-A270S compared to reference protein [2]: lower affinity towards the genetic variant OCT2-A270S than to the reference protein
PB, plasma protein binding [4]: 90%
inhibition of renal OCT2 and MATE1 compared to hepatic OCT1 [1]: preferential inhibition of the renal transporters OCT2 and MATE1 compared to the hepatic OCT1

SMILES: Cc1nccn1CC1CCc2c(c3ccccc3n2C)C1=O (stereo not drawn) [Ondansetron]
affinity towards OCT2-A270S compared to reference protein [2]: lower affinity towards the genetic variant OCT2-A270S than to the reference protein
inhibition potency for MATE1 versus other transporters of the panel [3]: considerably higher inhibition potency for MATE1 than for the other transporters in the panel
inhibition of transporter activity ([5]; inhibitor 250 µM): complete inhibition of transporter activity
inhibition of renal OCT2 and MATE1 compared to hepatic OCT1 [1]: preferential inhibition of the renal transporters OCT2 and MATE1 compared to the hepatic OCT1

SMILES: COc1cc(C(=O)NS(=O)(=O)c2ccccc2C)ccc1Cc1cn(C)c2ccc(NC(=O)OC3CCCC3)cc12 [zafirlukast]
inhibition in specificity screen (MATE1) ([3]; screen at 20 µM): showed affinity for all four organic cation transporters
inhibition in specificity screen (MATE2-K) ([5]; screen at 20 µM): showed affinity for all four organic cation transporters
inhibition in specificity screen (OCT1) [6]: showed affinity for all four organic cation transporters
inhibition in specificity screen (OCT2) ([1]; screen at 20 µM): showed affinity for all four organic cation transporters
